These results are taken from ChEMBL document CHEMBL1140373, “Azepanone-based inhibitors of human cathepsin L” (J Med Chem, 2005).

The structures appear in SMILES notation. Residues, ends and D or L forms follow the SMILES beside them. *: point of attachment. Cbz = O=C(OCc1ccccc1)*

For assay [1], the target named is Cathepsin B (Homo sapiens, UniProt P07858). Description: Apparent inhibitory constant against human cathepsin B. Conditions: read-out: Ki app.
In assay [2] the target is T1, Cathepsin K (Homo sapiens, UniProt P43235).
T1 sequence (P43235 whole entry): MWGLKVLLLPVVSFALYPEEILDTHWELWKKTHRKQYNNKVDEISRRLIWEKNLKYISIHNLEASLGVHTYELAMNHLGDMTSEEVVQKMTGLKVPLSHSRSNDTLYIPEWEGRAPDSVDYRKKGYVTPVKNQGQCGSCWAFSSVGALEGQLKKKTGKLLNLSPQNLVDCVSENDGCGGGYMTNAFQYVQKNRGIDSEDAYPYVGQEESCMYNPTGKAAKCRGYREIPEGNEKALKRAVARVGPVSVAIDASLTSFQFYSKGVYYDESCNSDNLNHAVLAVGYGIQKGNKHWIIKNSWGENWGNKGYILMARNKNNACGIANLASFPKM
Description: Apparent inhibitory constant against human cathepsin K. Conditions: read-out: Ki app.

In assay [3] the target is Procathepsin L (Homo sapiens, UniProt P07711). Description: Apparent inhibitory constant against human cathepsin L. Conditions: read-out: Ki app.
The target of assay [4] is Cathepsin S (Homo sapiens, UniProt P25774).
Cathepsin S, sequence (P25774 whole entry): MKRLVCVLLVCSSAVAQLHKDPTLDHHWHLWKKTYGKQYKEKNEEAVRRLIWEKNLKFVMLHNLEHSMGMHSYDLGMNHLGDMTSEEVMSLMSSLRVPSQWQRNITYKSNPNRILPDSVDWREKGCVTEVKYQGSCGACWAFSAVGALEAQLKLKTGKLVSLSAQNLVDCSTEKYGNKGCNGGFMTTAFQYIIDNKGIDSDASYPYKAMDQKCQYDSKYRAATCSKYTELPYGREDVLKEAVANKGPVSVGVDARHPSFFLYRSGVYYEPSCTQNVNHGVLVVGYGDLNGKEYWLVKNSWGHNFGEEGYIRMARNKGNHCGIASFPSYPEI
Description: Apparent inhibitory constant against human cathepsin S

Procathepsin L, sequence (P07711 whole entry): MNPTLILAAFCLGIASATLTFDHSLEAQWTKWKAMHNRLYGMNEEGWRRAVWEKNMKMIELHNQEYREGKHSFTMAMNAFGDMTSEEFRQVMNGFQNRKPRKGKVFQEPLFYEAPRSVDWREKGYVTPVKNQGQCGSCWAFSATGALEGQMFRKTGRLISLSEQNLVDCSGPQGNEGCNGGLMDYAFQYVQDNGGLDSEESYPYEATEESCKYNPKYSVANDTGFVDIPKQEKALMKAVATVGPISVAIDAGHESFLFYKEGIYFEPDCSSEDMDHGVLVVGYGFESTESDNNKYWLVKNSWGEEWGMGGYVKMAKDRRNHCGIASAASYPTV

As for `O=C(N[C@@H](Cc1ccc2ccccc2c1)C(=O)N[C@H]1CCCN(S(=O)(=O)c2ccccn2)CC1=O)c1cccc2ccccc12`, the Ki in assay [1] is 150 nM; in assay [2], over 10000 nM; in assay [3], 0.43 nM; in assay [4], 15.6 nM.
As to `O=C(N[C@@H](Cc1ccc2ccccc2c1)C(=O)N[C@H]1CCCN(S(=O)(=O)c2ccccn2)CC1=O)c1cc2ccccc2o1`, the Ki in assay [1] turned out to be 24 nM; in assay [2] it was 295 nM; in assay [3], 0.57 nM; in assay [4], 3.1 nM.
Taken in the same sequence, the figures for `CC(C)C[C@H](NC(=O)c1cccc2cccnc12)C(=O)N[C@H]1CCCN(S(=O)(=O)c2ccccn2)CC1=O` were over 1000 nM, 52 nM, 8.2 nM and 41 nM.
As for `CC(C)C[C@H](NC(=O)c1cccc2ccccc12)C(=O)N[C@H]1CCCN(S(=O)(=O)c2ccccn2)CC1=O`, the Ki came to 12 nM in assay [2], 1.4 nM in assay [3] and 5.7 nM in assay [4].
As for `O=C(N[C@@H](Cc1ccccc1)C(=O)N[C@H]1CCCN(S(=O)(=O)c2ccccn2)CC1=O)c1cc2ccccc2o1`, the Ki was determined as 193 nM in assay [1], 10.5 nM in assay [2], 1.7 nM in assay [3] and 8.9 nM in assay [4].
Consider `CC(C)C[C@H](NC(=O)c1ccc2ccccc2n1)C(=O)N[C@H]1CCCN(S(=O)(=O)c2ccccn2)CC1=O`, for which the Ki in assay [1] was 740 nM; in assay [2], 0.89 nM; in assay [3], 5 nM; in assay [4], 27 nM.
With `O=C[C@H](Cc1ccc(O)cc1)NC(=O)[C@H](Cc1ccccc1)NC(=O)OCc1ccccc1` (Cbz-Phe-Tyr-aldehyde), the figures for the Ki in assay [2], in assay [3] and in assay [4] were 0.74 nM, 0.47 nM and 0.26 nM, respectively.
